Assay [1] addresses T1, human GLP-1 receptor (Homo sapiens, UniProt P43220).
T1 construct: expressed in transfected cells; host or cells: membranes of BHK cells (parent BHKTS13), clone FCW467-12A
Put plainly: Assay (I)(a) GLP-1 receptor activation, CRE luciferase reporter gene assay in BHK cells. It is filed as cell-based. The conditions noted are these: without presence of serum albumin; read-out: GLP-1R EC50 (pM) [Assay (I)(a)]. The method, then: The purpose of this example was to test the activity or potency, of the glucagon derivatives of the invention, in vitro. The in vitro potency is the measure of human GLP-1 receptor (GLP-1R) or glucagon receptor (glucagonR) activation, respectively, in a whole cell assay. In vitro potency was determined by measuring the response of human GLP-1 or glucagon receptor, respectively, in a reporter gene assay. The assay was performed in a stably transfected BHK cell line that expresses either the human GLP-1 receptor or the human glucagon receptor and contains the DNA for the cAMP response element (CRE) coupled to a promoter and the gene for firefly luciferase (CRE luciferase). […] When assay incubation was completed, the luciferase substrate (luciferin) was added and the enzyme converted luciferin to oxyluciferin and produces bioluminescence. The luminescence was measured as the readout for the assay. The cells used in this assay (clone FCW467-12A/KZ10-1) were BHK cells with BHKTS13 as a parent cell line. The cells were derived from a clone (FCW467-12A) that expresses the human GLP-1 receptor and were established by further transfection with CRE luciferase to obtain the current clone. The cells were cultured at 5% CO2 in DMEM medium with 10% FBS, 1×GlutaMAX, 1 mg/ml G418, 240 nM MTX (methotrexate) and 1% pen/strep (penicillin/streptomycin). They were aliquoted and stored in liquid nitrogen. Before each assay, an aliquot was taken up and washed three times in PBS before being suspended at the desired concentration in assay medium. For 96-well plates the suspension was made to give a final concentration of 5×10EE3 cells/well. The following chemicals were used in the assay: Pluronic F-68 (10%) (Gibco 2404), ovalbumin (Sigma A5503), DMEM w/o phenol red (Gibco 11880-028), 1 M Hepes (Gibco 15630), Glutamax 100× (Gibco 35050) and steadylite plus (PerkinElmer 6016757). Assay Medium consisted of DMEM w/o phenol red, 10 mM Hepes, 1× GlutaMAX, 2% Ovalbumin and 0.2% Pluronic F-68. Cell stocks were thawed in a 37° C. water bath. Cells were washed three times in PBS. The cells were counted and adjusted to 5×10EE3 cells/50 μl (1×10EE5 cells/ml) in Assay Medium. A 50 μl aliquot of cells was transferred to each well in the assay plate. Stocks of the test compounds and reference compounds were diluted to a concentration of […] in Assay Medium. Compounds were diluted 10-fold to give the following concentrations: 2×10EE-6 M, 2×10EE-7 M, 2×10EE-8 M; 2×10EE-9 M, 2×10EE-10 M, 2×10EE-11 M, 2×10EE-12 M and 2×10EE-13 M. For each compound a blank assay medium control was also included. A 50 μl aliquot of compound or blank was transferred from the dilution plate to the assay plate. Compounds were tested at the following final concentrations: 1×10EE-6 M, 1×10EE-7 M, 1×10EE-8 M; 1×10EE-9 M, 1×10EE-10 M, 1×10EE-11 M and 1×10EE-12 M and 1×10EE-13 M. The assay plate was incubated for 3 h in a 5% CO2 incubator at 37° C. The assay plate was removed from the incubator and allowed to stand at room temperature for 15 min. A 100 μl aliquot of steadylite plus reagent was added to each well of the assay plate (reagent is light sensitive). Each assay plate was covered with aluminum foil to protect it from light and shaken for 30 min at room temperature. Each assay plate was read in a Perkin Elmer TopCount NXT instrument. The data from the TopCount instrument was transferred to GraphPad Prism software. The software performed a non-linear regression (log(agonist) vs response-Variable slope (four parameter)). EC50 values were calculated by the software and reported in pM.

The target of assay [2] is T1, human GLP-1 receptor. Put plainly: Assay (II)(a) GLP-1 receptor binding, 125I-GLP-1 displacement SPA on BHK membranes. The note with it: without presence of serum albumin; read-out: GLP-1R IC50 (nM) [Assay (II)(a)]. The method, then:
The GLP-1 receptor (GLP-1R) binding is a measure of affinity of a compound for the human GLP-1 receptor. The receptor binding of each compound to the human GLP-1 receptor was measured in a displacement binding assay. In this type of assay a labelled ligand (in this case 125I-GLP-1) is bound to the receptor. Each derivative was added in a series of concentrations to isolated membranes containing the human GLP-1 receptor and displacement of the labelled ligand was monitored. The receptor binding was reported as the concentration at which half of the labelled ligand was displaced from the receptor, the IC50 value. In order to test the binding of the derivatives to albumin, the assay may be performed in a very low concentration of serum albumin (max. 0.001% final assay concentration) as well as in the presence of a (considerably) higher concentration of serum albumin (2.0% final assay concentration). An increase of the IC50 value, in the presence of serum albumin indicates an affinity to serum albumin and represents a method to predict a protracted pharmacokinetic profile of the test substance in animal models. The following chemicals were used in the assay: DMEM w/o phenol red (Gibco 11880-028), Pen/strep (Invitrogen 15140-122), G418 (Invitrogen 10131-027), 1 M Hepes (Gibco 15630), EDTA (Invitrogen 15575-038), PBS (Invitrogen 14190-094), fetal calf serum (Invitrogen 16140-071), EGTA, MgCl2 (Merck 1.05832.1000), Tween 20 (Amresco 0850C335), SPA particles (wheat germ agglutinin (WGA) SPA beads, Perkin Elmer RPNQ0001), [125I]-GLP-1]-(7-36)NH2 (produced in-house), OptiPlate™-96 (Perkin Elmer). Buffer 1 consisted of 20 mM Na-HEPES plus 10 mM EDTA and pH was adjusted to 7.4. Buffer 2 consisted of 20 mM Na-HEPES plus 0.1 mM EDTA and pH was adjusted to 7.4. Assay buffer consisted of 50 mM HEPES supplemented with 5 mM EGTA, 5 mM MgCl2, 0.005% Tween 20 and pH was adjusted to 7.4. The cells used in this assay (clone FCW467-12A) were BHK cells with BHKTS13 as a parent cell line. The cells express the human GLP-1 receptor. The cells were grown at 5% CO2 in DMEM, 10% fetal calf serum, 1% Pen/Strep (Penicillin/Streptomycin) and 1.0 mg/ml of the selection marker G418. To make a membrane preparation the cells were grown to approximately 80% confluence. The cells were washed twice in phosphate-buffered saline and harvested. The cells were pelleted using a brief centrifugation and the cell pellet was kept on ice. The cell pellet was homogenised with ULTRA-THURRAX dispersing instrument for 20-30 seconds in a suitable amount of buffer 1 (e.g., 10 ml). The homogenate was centrifuged for 15 minutes. The pellet was re-suspended (homogenised) in 10 ml buffer 2 and centrifuged. This step was repeated once more. The resulting pellet was re-suspended in buffer 2 and the protein concentration was determined. The membranes were aliquoted and stored at minus 80° C. • 1. For the receptor binding assay, 50 μl of the assay buffer was added to each well of an assay plate. • 2. Test compounds were serially diluted to give the following concentrations: 8×10EE-7 M, 8×10EE-8 M, 8×10EE-9 M, 8×10EE-10 M, 8×10EE-11 M, 8×10EE-12 M and 8×10EE-13 M. Twenty-five μl were added to appropriate wells in the assay plate. • 3. Cell membrane aliquots were thawed and diluted to their working concentration. Fifty μl were added to each well in the assay plate. • 4. WGA SPA beads were suspended in assay buffer at 20 mg/ml. The suspension was diluted to 10 mg/ml in assay buffer just prior to addition to the assay plate. Fifty μl were added to each well in the assay plate. • 5. The incubation was started by adding 25 μl of […] solution of [125I]-GLP-1]-(7-36)NH2 to each well of the assay plate. A 25 μl aliquot was reserved for measuring total counts/well. • 6. The assay plate was incubated for 2 h at 30° C. • 7. The assay plate was centrifuged for 10 min. • 8. The assay plate was read in a Perkin Elmer TopCount NXT instrument. […]

Starred links: 1 amine or outer side, 2 acyl side, 3 side chain; linkers in the order of their positions; H or OH if unused. Non-standard residues stand in square brackets, D forms with d. Residues, ends and D or L forms follow the SMILES beside them. Groups on a side chain read outwards from the residue. *: point of attachment. C18 diacid = O=C(O)CCCCCCCCCCCCCCCCC(=O)*; γGlu = O=C(O)[C@H](CCC(=O)[*:2])N[*:1]; Ac4c = NC1(C(=O)O)CCC1; AEEA = NCCOCCOCC(=O)O

T1 sequence (P43220 24-463): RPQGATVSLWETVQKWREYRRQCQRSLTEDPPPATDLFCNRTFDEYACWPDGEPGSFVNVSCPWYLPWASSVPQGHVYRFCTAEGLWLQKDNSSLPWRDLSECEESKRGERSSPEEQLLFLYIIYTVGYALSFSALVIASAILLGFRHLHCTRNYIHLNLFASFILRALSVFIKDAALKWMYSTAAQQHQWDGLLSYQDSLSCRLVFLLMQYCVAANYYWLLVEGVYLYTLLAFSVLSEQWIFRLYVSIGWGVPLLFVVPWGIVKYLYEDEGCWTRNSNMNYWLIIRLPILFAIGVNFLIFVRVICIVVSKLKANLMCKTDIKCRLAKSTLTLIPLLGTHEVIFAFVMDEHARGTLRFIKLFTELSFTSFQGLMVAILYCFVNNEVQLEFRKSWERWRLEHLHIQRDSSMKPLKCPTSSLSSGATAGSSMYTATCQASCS

As usually defined, the EC50 is the concentration at which the effect is half-maximal. As usually defined, the IC50 is the concentration that gives 50% inhibition. As for `CC[C@H](C)[C@H](NC(=O)[C@H](CC(C)C)NC(=O)[C@H](Cc1c[nH]c2ccccc12)NC(=O)[C@H](CCC(N)=O)NC(=O)[C@@H](NC(=O)[C@H](Cc1ccccc1)NC(=O)[C@H](CC(=O)O)NC(=O)[C@H](CCCNC(=N)N)NC(=O)[C@H](C)NC(=O)[C@H](CCCNC(=N)N)NC(=O)[C@H](CCCNC(=N)N)NC(=O)[C@H](C)NC(=O)[C@H](CC(=O)O)NC(=O)[C@H](CC(C)C)NC(=O)[C@H](Cc1ccc(O)cc1)NC(=O)[C@H](CCCNC(=N)N)NC(=O)[C@H](CO)NC(=O)[C@H](CC(C)C)NC(=O)[C@H](CC(=O)O)NC(=O)[C@H](CO)NC(=O)[C@@H](NC(=O)[C@H](Cc1ccccc1)NC(=O)[C@@H](NC(=O)CNC(=O)[C@H](CCC(N)=O)NC(=O)C(C)(C)NC(=O)[C@@H](N)Cc1c[nH]cn1)[C@@H](C)O)[C@@H](C)O)C(C)C)C(=O)N[C@@H](CCCCNC(=O)CC[C@H](NC(=O)CC[C@H](NC(=O)CC[C@H](NC(=O)CCCCCCCCCCCCCCCCC(=O)O)C(=O)O)C(=O)O)C(=O)O)C(=O)N[C@H](C(N)=O)[C@@H](C)O` [Chem. 14, N^ε28-[(4S)-4-carboxy-4-[[(4S)-4-carboxy-4-[[(4S)-4-carboxy-4-(17-carboxyheptadecanoylamino)butanoyl]amino]butanoyl]amino]butanoyl]-[Aib2,Leu10,Arg12,Ala16,Arg20,Ile27,Lys28]-Glucagon amide] (HELM PEPTIDE1{H.[Aib].Q.G.T.F.T.S.D.L.S.R.Y.L.D.A.R.R.A.R.D.F.V.Q.W.L.I.K.T.[am]}|PEPTIDE2{[O=C(O)CCCCCCCCCCCCCCCCC(=O)[*:2]].[gGlu].[gGlu].[gGlu]}$PEPTIDE1,PEPTIDE2,28:R3-4:R2$$$V2.0), in assay [1], the EC50 amounted to 2 pM. Further, the IC50 in assay [2] was determined as 0.1 nM.

For `CC[C@H](C)[C@H](NC(=O)[C@H](CC(C)C)NC(=O)[C@H](Cc1c[nH]c2ccccc12)NC(=O)[C@H](CCC(N)=O)NC(=O)[C@@H](NC(=O)[C@H](Cc1ccccc1)NC(=O)[C@H](CCC(=O)O)NC(=O)[C@H](CCCNC(=N)N)NC(=O)[C@H](C)NC(=O)[C@H](CCCNC(=N)N)NC(=O)[C@H](CCCNC(=N)N)NC(=O)[C@H](CO)NC(=O)[C@H](CCC(=O)O)NC(=O)[C@H](CC(C)C)NC(=O)[C@H](Cc1ccc(O)cc1)NC(=O)[C@H](CCCCN)NC(=O)[C@H](CO)NC(=O)[C@H](CC(C)C)NC(=O)[C@H](CC(=O)O)NC(=O)[C@H](CO)NC(=O)[C@@H](NC(=O)[C@H](Cc1ccccc1)NC(=O)[C@@H](NC(=O)CNC(=O)[C@H](CCC(N)=O)NC(=O)C1(NC(=O)[C@@H](N)Cc2c[nH]cn2)CCC1)[C@@H](C)O)[C@@H](C)O)C(C)C)C(=O)N[C@@H](CCCCNC(=O)CC[C@H](NC(=O)CC[C@H](NC(=O)COCCOCCNC(=O)COCCOCCNC(=O)CC[C@H](NC(=O)CC[C@H](NC(=O)CCCCCCCCCCCCCCCCC(=O)O)C(=O)O)C(=O)O)C(=O)O)C(=O)O)C(=O)N[C@H](C(N)=O)[C@@H](C)O` [Chem. 13, N^ε28-[(4S)-4-carboxy-4-[[(4S)-4-carboxy-4-[[2-[2 [2-[[2-[2-[2-[[(4S)-4-carboxy-4-[[(4S)-4-carboxy-4-(17-carboxyheptadecanoylamino)butanoyl]amino]butanoyl]amino]ethoxy]ethoxy]acetyl]amino]ethoxy]ethoxy]acetyl]amino]butanoyl]amino]butanoyl]-[Acb2,Leu10,Glu15,Arg20,Glu21,Ile27,Lys28]-Glucagon amide] (H-H[Ac4c]QGTFTSDLSKYLESRRAREFVQWLIK([γGlu-γGlu-AEEA-AEEA-γGlu-γGlu-C18 diacid])T-NH2), the EC50 in assay [1] amounted to 4 pM. Also, in assay [2], the IC50 turned out to be 0.1 nM.

The values above are taken from patent US10570184B2, “GLP-1/glucagon receptor co-agonists for medical use” (Novo Nordisk A/S, priority 2014, dated 2020).
